Earlier results on two molecules are cited in US11470860B2, “Animal feeds containing specific glycolipids” (PATHWAY INTERMEDIATES LIMITED, priority 2016, dated 2022).

The conditions of this data set: for stability versus pH: aqueous medium.

With `CC(CCCCCC/C=C\CCCCCCCC(=O)O)OC1OC(CO)C(O)C(O)C1OC1OC(CO)C(O)C(O)C1O` (stereo not drawn) [Acidic sophorolipids], the “stability versus pH” value is “instability at pH higher than 7.0”. Moreover, for the setting “dependence on pH”, the “solubility in aqueous medium” value is recorded as “not readily soluble in aqueous medium at acidic pH but become soluble at higher pH”. In the case of `CC1CCCCCC/C=C\CCCCCCCC(=O)OC2C(CO)OC(OC3C(O1)OC(CO)C(O)C3O)C(O)C2O` (stereo not drawn) [lactonised sophorolipids], the “stability versus pH” value is “stable across a wider pH range”.
